Assay results from patent publication US6218406A, “Farnesyl transferase inhibitors, their preparation, the pharmaceutical compositions which contain them and their use in the preparation of medicaments” (Aventis Pharma S.A., priority 1996, dated 2001).
Where a name gives a salt, the structure may show the parent alone. Read-outs that look alike come from different tables or passages of the source.

Molecular target: farnesyl transferase (Homo sapiens, UniProt P49354+P49356)
Experiment: Farnesyl transferase inhibition, [3H]-farnesylation of biotinylated K-ras C-terminal peptide (SPA assay)
Assay type: biochemical
Details: 60 min at 37° C., mean of two IC50 values
[1] = K-Ras substrate, read-out: In vitro inhibitory activity (K-Ras) IC50

SMILES	IC50 [1] [nM]	IC50 (In vitro inhibitory activity (K-Ras) IC50, K-Ras substrate) [nM]
C=C(C(=O)N1C[C@@H]2[C@]3(c4ccc(C)c(C)c4)CC[C@@H](c4ccccc43)[C@]2(C(=O)O)C1)c1ccccc1OC (racemic) [Example 72, (3aRS,4SR,9SR,9aRS)-9-(3,4-dimethylphenyl)-4,9-ethano-2-[2-(2-methoxyphenyl)propenoyl]-2,3,3a,4,9,9a-hexahydro-1H-benzo[f]isoindole-3a-carboxylic Acid]	98	
C=C(C(=O)N1C[C@@H]2[C@@]3(c4c[nH]c5ccccc45)CC[C@@H](c4ccccc43)[C@]2(C(=O)OC)C1)c1ccccc1OC (racemic) [Example 55, methyl (3aRS,4SR,9SR,9aRS)-4,9-ethano-2-[2-(2-methoxyphenyl)propenoyl]-9-(3-indolyl)-2,3,3a,4,9,9a-hexahydro-1H-benzo[f]isoindole-3a-carboxylate]	558	
C=C(C(=O)N1C[C@@H]2[C@]3(c4ccc(C(F)(F)F)cc4)CC[C@@H](c4ccccc43)[C@]2(C(=O)NCc2cccnc2)C1)c1ccccc1OC (relative stereo) [Example 42, (3aRS,4SR,9SR,9aRS)-4,9-ethano-2-[2-(2-methoxyphenyl)propenoyl]-9-[4-(trifluoromethyl)phenyl]-2,3,3a,4,9,9a-hexahydro-1H-benzo[f]isoindole-3a-N-(3-pyridylmethyl)carboxamide]	83	
C=C(C(=O)N1C[C@@H]2[C@]3(c4cccc(F)c4)CC[C@@H](c4ccccc43)[C@]2(C(=O)OC)C1)c1ccccc1OC (racemic) [Example 85, methyl (3aRS,4SR,9SR,9aRS)-4,9-ethano-9-(3-fluorophenyl)-2-[2-(2-methoxyphenyl)propenoyl]-2,3,3a,4,9,9a-hexahydro-1H-benzo[f]isoindole-3a-carboxylate]	508	
COC(=O)[C@@]12CN(C(=O)Cc3ccccc3OC)C[C@@H]1[C@]1(c3ccc(C)c(C)c3)CC[C@H]2c2ccccc21 (racemic) [Example 11, Methyl (3aRS,4SR,9SR,9aRS)-9-(3,4-dimethylphenyl)-4,9-ethano-2-[(2-methoxyphenyl)acetyl]-2,3,3a,4,9,9a-hexahydro-1H-benzo[f]isoindole-3a-carboxylate]	345	
C=C(C(=O)N1C[C@H]2[C@@]3(c4ccc(OC)cc4)CC[C@H](c4ccccc43)[C@@]2(C(=O)NCc2cccnc2)C1)c1ccccc1OC (relative stereo) [Example 76, (3aRS,4SR,9SR,9aRS)-4,9-ethano-9-(4-methoxyphenyl)-2-[2-(2-methoxyphenyl)propenoyl]-2,3,3a,4,9,9a-hexahydro-1H-benzo[f]isoindole-3a-N-(3-pyridylmethyl)carboxamide]	244	
C=C(C(=O)N1C[C@@H]2[C@]3(c4cccc(Br)c4)CC[C@@H](c4ccccc43)[C@]2(C(=O)O)C1)c1ccccc1OC (racemic) [Example 84, (3aRS,4SR,9SR,9aRS)-9-(3-bromophenyl)-4,9-ethano-2-[2-(2-methoxyphenyl)propenoyl]-2,3,3a,4,9,9a-hexahydro-1H-benzo[f]isoindole-3a-carboxylic Acid]	8	
C=C(C(=O)N1C[C@H]2[C@@]3(c4ccc(C)cc4)CC[C@H](c4ccccc43)[C@@]2(C(=O)NN(C)C)C1)c1ccccc1OC (relative stereo) [Example 22, (3aRS,4SR,9SR,9aRS)-4,9-ethano-2-[2-(2-methoxyphenyl)propenoyl]-9-(4-methylphenyl)-2,3,3a,4,9,9a-hexahydro-1H-benzo[f]isoindole-3a-N',N'-dimethylcarbohydrazide]	131	
C=C(C(=O)N1C[C@H]2[C@@]3(c4cccc(F)c4)CC[C@H](c4ccccc43)[C@@]2(C(=O)NCc2cccnc2)C1)c1ccccc1OC (relative stereo) [Example 87, (3aRS,4SR,9SR,9aRS)-4,9-ethano-9-(3-fluorophenyl)-2-[2-(2-methoxyphenyl)propenoyl]-2,3,3a,4,9,9a-hexahydro-1H-benzo[f]isoindole-3a-N-(3-pyridylmethyl)carboxamide]	64	
C=C(C(=O)N1C[C@H]2[C@@]3(c4cccc(N(C)C)c4)CC[C@H](c4ccccc43)[C@@]2(C(=O)OC)C1)c1ccccc1OC (relative stereo) [Example 91, methyl (3aRS,4SR,9SR,9aRS)-9-(3-N,N-dimethylaminophenyl)-4,9-ethano-2-[2-(2-methoxyphenyl)propenoyl]-2,3,3a,4,9,9a-hexahydro-1H-benzo[f]isoindole-3a-carboxylate]	183	
C=C(C(=O)N1C[C@H]2[C@@]3(c4ccc(C)cc4)CC[C@H](c4ccccc43)[C@@]2(C(=O)NN2CCCCC2)C1)c1ccccc1OC (relative stereo) [Example 24, (3aRS,4SR,9SR,9aRS)-4,9-ethano-2-[2-(2-methoxyphenyl)propenoyl]-9-(4-methylphenyl)-2,3,3a,4,9,9a-hexahydro-1H-benzo[f]isoindole-3a-N',N'-pentamethylenecarbohydrazide]	84	
C=C(C(=O)N1C[C@@H]2[C@]3(c4ccc(C(F)(F)F)cc4)CC[C@@H](c4ccccc43)[C@]2(C(=O)NNc2ccccc2)C1)c1ccccc1OC (relative stereo) [Example 44, (3aRS,4SR,9SR,9aRS)-4,9-ethano-2-[2-(2-methoxyphenyl)propenoyl]-9-[4-(trifluoromethyl)phenyl]-2,3,3a,4,9,9a-hexahydro-1H-benzo[f]isoindole-3a-N'-phenylcarbohydrazide]	369	
C=C(C(=O)N1C[C@H]2[C@@]3(c4ccc(C)cc4)CC[C@H](c4ccccc43)[C@@]2(C(=O)NCc2ccncc2)C1)c1ccccc1OC (relative stereo) [Example 20, (3aRS,4SR,9SR,9aRS)-4,9-ethano-2-[2-(2-methoxyphenyl)propenoyl]-9-(4-methylphenyl)-2,3,3a,4,9,9a-hexahydro-1H-benzo[f]isoindole-3a-N-(4-pyridylmethyl)carboxamide]	140	
C=C(C(=O)N1C[C@@H]2[C@]3(c4ccc(OC(F)(F)F)cc4)CC[C@@H](c4ccccc43)[C@]2(C(=O)O)C1)c1ccccc1OC (racemic) [Example 82, (3aRS,4SR,9SR,9aRS)-4,9-ethano-2-[2-(2-methoxyphenyl)propenoyl]-9-(4-trifluoromethoxyphenyl)-2,3,3a,4,9,9a-hexahydro-1H-benzo[f]isoindole-3a-carboxylic Acid]	97	
C=C(C(=O)N1C[C@@H]2[C@]3(c4ccc(Cl)c(F)c4)CC[C@@H](c4ccccc43)[C@]2(C(=O)OC)C1)c1ccccc1OC (racemic) [Example 66, methyl (3aRS,4SR,9SR,9aRS)-9-(4-chloro-3-fluorophenyl)-4,9-ethano-2-[2-(2-methoxyphenyl)-propenoyl]-2,3,3a,4,9,9a-hexahydro-1H-benzo[f]isoindole-3a-carboxylate]	379	
C=C(C(=O)N1C[C@@H]2[C@]3(c4ccc(OC)cc4)CC[C@@H](c4ccccc43)[C@]2(C(=O)NO)C1)c1ccccc1OC (racemic) [Example 78, (3aRS,4SR,9SR,9aRS)-4,9-ethano-9-(4-methoxyphenyl)-2-[2-(2-methoxyphenyl)propenoyl]-2,3,3a,4,9,9a-hexahydro-1H-benzo[f]isoindole-3a-hydroxamic acid]	48	
C=C(C(=O)N1C[C@@H]2[C@]3(c4ccc5c(c4)OCCO5)CC[C@@H](c4ccccc43)[C@]2(C(=O)OC)C1)c1ccccc1OC (racemic) [Example 31, methyl (3aRS,4SR,9SR,9aRS)-9-(2,3-dihydro-1,4-benzodioxin-6-yl)-4,9-ethano-2-[2-(2-methoxyphenyl)propenoyl]-2,3,3a,4,9,9a-hexahydro-1H-benzo[f]isoindole-3a-carboxylate]	101	
C=C(C(=O)N1C[C@H]2[C@@]3(c4ccc(C)s4)CC[C@@H](c4ccccc43)[C@]2(C(=O)O)C1)c1ccccc1OC (racemic) [Example 48, (3aRS,4SR,9SR,9aRS)-4,9-ethano-2-[2-(2-methoxyphenyl)propenoyl]-9-(5-methyl-2-thienyl)-2,3,3a,4,9,9a-hexahydro-1H-benzo[f]isoindole-3a-carboxylic Acid]		95
C=C(C(=O)N1C[C@@H]2[C@]3(c4ccc(C)cc4)CC[C@@H](c4ccccc43)[C@]2(C(=O)NO)C1)c1ccccc1OC (racemic) [Example 16, (3aRS,4SR,9SR,9aRS)-4,9-ethano-2-[2-(2-methoxyphenyl)propenoyl]-9-(4-methylphenyl)-2,3,3a,4,9,9a-hexahydro-1H-benzo[f]isoindole-3a-hydroxamic acid]	360	
C=C(C(=O)N1C[C@@H]2[C@]3(c4ccc(Cl)cc4)CC[C@@H](c4ccccc43)[C@]2(C(=O)OC)C1)c1ccccc1OC (racemic) [Example 52, methyl (3aRS,4SR,9SR,9aRS)-9-(4-chlorophenyl)-4,9-ethano-2-[2-(2-methoxyphenyl)-propenoyl]-2,3,3a,4,9,9a-hexahydro-1H-benzo[f]isoindole-3a-carboxylate]	181	
C=C(C(=O)N1C[C@@H]2[C@]3(c4ccc(Cl)cc4)CC[C@@H](c4ccccc43)[C@]2(C(=O)O)C1)c1ccccc1OC (racemic) [Example 53, (3aRS,4SR,9SR,9aRS)-9-(4-chlorophenyl)-4,9-ethano-2-[2-(2-methoxyphenyl)propenoyl]-2,3,3a,4,9,9a-hexahydro-1H-benzo[f]isoindole-3a-carboxylic Acid]	20	
C=C(C(=O)N1C[C@@H]2[C@]3(c4ccc5ccccc5c4)CC[C@@H](c4ccccc43)[C@]2(C(=O)O)C1)c1ccccc1OC (relative stereo) [Example 46, sodium salt of (3aRS,4SR,9SR,9aRS)-4,9-ethano-2-[2-(2-methoxyphenyl)propenoyl]-9-(2-naphthyl)-2,3,3a,4,9,9a-hexahydro-1H-benzo[f]isoindole-3a-carboxylic Acid]	132	
C=C(C(=O)N1C[C@H]2[C@@]3(c4ccc(C)cc4)CC[C@H](c4ccccc43)[C@@]2(C(=O)NNc2ccccc2C)C1)c1ccccc1OC (relative stereo) [Example 29, (3aRS,4SR,9SR,9aRS)-4,9-ethano-2-[2-(2-methoxyphenyl)propenoyl]-9-(4-methylphenyl)-2,3,3a,4,9,9a-hexahydro-1H-benzo[f]isoindole-3a-N'-(2-methylphenyl)carbohydrazide]	140	
